# Source: patent US9840510B1, “Pyrazolo[1,5-a]pyrimidinyl carboxamide compounds and their use in the treatment of medical disorders” (Lysosomal Therapeutics Inc., priority 2016, dated 2017)
# Assay: Compound solubility in water
# Format: physicochemical
row,Structure (SMILES),solubility
1,C#CC(C)(C)NC(=O)c1cnn2c(C)cc(-c3cccc(OC4CC4)c3)nc12 [III-82],1.5 µg/mL
2,Cc1cc(N2CC(C(C)C)OC2=O)nc2c(C(=O)NC(c3ccccc3)C(F)(F)F)cnn12 (centres unmarked) [III-313],0.1 µg/mL
3,Cc1nc(-c2cc(C)n3ncc(C(=O)NC(C)(C)C4CC4)c3n2)co1 [III-251],3.9 µg/mL
4,Cc1cc(-c2cccc3ncoc23)nc2c(C(=O)NC(C)(C)C(F)(F)F)cnn12 [III-219],2.7 µg/mL
5,Cc1ccc(-c2cc(C)n3ncc(C(=O)N[C@@H](C4CC4)C(F)(F)F)c3n2)cn1 [III-280],1.3 µg/mL
6,Cc1cc(-c2ccc(F)cc2C#N)nc2c(C(=O)N[C@@H](C)C(F)(F)F)cnn12 [III-156],0.3 µg/mL
7,Cc1coc(-c2cc(C)n3ncc(C(=O)NC(C4CC4)C(F)(F)F)c3n2)n1 (centres unmarked) [III-254],0.6 µg/mL
8,Cc1oc(C#N)cc1-c1cc(C)n2ncc(C(=O)NC(C3CC3)C(F)(F)F)c2n1 (centres unmarked) [III-242],3.2 µg/mL
9,COc1cc(-c2cc(C)n3ncc(C(=O)NC(C4CC4)C(F)(F)F)c3n2)ccc1F (centres unmarked) [III-147],0.4 µg/mL
10,Cc1cc(-c2cc(F)ccc2C#N)nc2c(C(=O)N[C@@H](C)C3CC3)cnn12 [III-396],0.3 µg/mL
11,COc1c(C#N)cccc1-c1cc(C)n2ncc(C(=O)NC(C3CC3)C(F)(F)F)c2n1 (centres unmarked) [III-141],1.1 µg/mL
12,Cc1cc(-c2ccncc2)nc2c(C(=O)NC(C)C3CC3)cnn12 (centres unmarked) [III-28],27.6 µg/mL
13,Cc1cc(N2CCN(C(C)C)C2=O)nc2c(C(=O)NC(C)(C)C)cnn12 [III-232],23.7 µg/mL
14,Cc1cc(-n2ccc(F)n2)nc2c(C(=O)N[C@H](C3CC3)C(F)(F)F)cnn12 [III-173],1.4 µg/mL
15,Cc1cc(C)n2ncc(C(=O)NC(C3CC3)C(F)(F)F)c2n1 (centres unmarked) [III-9],18 µg/mL
16,CCc1cc(-c2ccccn2)nc2c(C(=O)NC(C)C3CC3)cnn12 (centres unmarked) [III-49],2.5 µg/mL
17,Cc1cc(N2CCN(C(C)C)C2=O)nc2c(C(=O)NC(C3CC3)C(F)(F)F)cnn12 (centres unmarked) [III-225],19.3 µg/mL
18,Cc1cc(NC2CC2)nc2c(C(=O)NC(C3CC3)C3CC3)cnn12 [III-78],5.6 µg/mL
19,Cc1cc(-c2cc(C)n3ncc(C(=O)N[C@H](C)C(F)(F)F)c3n2)co1 [III-338],0.2 µg/mL

row,Structure (SMILES),solubility
1,Cc1cc(-c2cncc(Cl)c2)nc2c(C(=O)NC(C)C(F)(F)F)cnn12 (centres unmarked) [III-200],1 µg/mL
2,Cc1cc(-c2cccc(F)c2C#N)nc2c(C(=O)N[C@@H](C)C(F)(F)F)cnn12 [III-399],0.1 µg/mL
3,Cc1ccc(-c2cc(C)n3ncc(C(=O)NC(C4CC4)C(F)(F)F)c3n2)cn1 (centres unmarked) [III-278],0.5 µg/mL
4,CCc1cc(N2CCN(C(C)C)C2=O)nc2c(C(=O)NC(C3CC3)C(F)(F)F)cnn12 (centres unmarked) [III-224],1.2 µg/mL
5,Cc1cc(-c2cccc(F)c2C#N)nc2c(C(=O)N[C@@H](C)C3CC3)cnn12 [III-398],0.2 µg/mL
6,Cc1cc(-c2ccc(C(F)(F)F)nc2)nc2c(C(=O)NC(C)C(F)(F)F)cnn12 (centres unmarked) [III-288],1.4 µg/mL
7,Cc1cc(N2CCOCC2)nc2c(C(=O)NC(C)(C)C3CC3)cnn12 [III-59],10.3 µg/mL
8,Cc1ccc(-c2cc(C)n3ncc(C(=O)N[C@H](C4CC4)C(F)(F)F)c3n2)c(F)n1 [III-372],1.7 µg/mL
9,Cc1nc2cc(-c3cc(C)n4ncc(C(=O)N[C@@H](C)C5CC5)c4n3)ccc2o1 [III-321],1.9 µg/mL
10,Cc1cc(-c2cc(F)cc(C#N)c2)nc2c(C(=O)N[C@@H](C)C3CC3)cnn12 [III-128],3 µg/mL
11,Cc1cc(-c2ccc3scnc3c2)nc2c(C(=O)NC(C)C(F)(F)F)cnn12 (centres unmarked) [III-220],0.1 µg/mL
12,Cc1cc(-c2nc3ccccc3[nH]2)nc2c(C(=O)NC(C3CC3)C(F)(F)F)cnn12 (centres unmarked) [III-311],0.6 µg/mL
13,Cc1cc(-c2cc(Cl)ccn2)nc2c(C(=O)NC(C3CC3)C(F)(F)F)cnn12 (centres unmarked) [III-207],0.6 µg/mL
14,Cc1cc(-c2cccnc2)n2ncc(C(=O)NC(C)(C)C3CC3)c2n1 [III-19],5.3 µg/mL
15,Cc1cc(-c2cccc(F)n2)nc2c(C(=O)N[C@H](C)C3CC3)cnn12 [III-135],1.5 µg/mL
16,Cc1cc(Cl)nc2c(C(=O)NC(C)(C)C3CC3)cnn12 [III-15],14.1 µg/mL
17,Cc1ccc(-c2cc(C)n3ncc(C(=O)NC(C)C(F)(F)F)c3n2)cn1 (centres unmarked) [III-283],12.7 µg/mL
18,Cc1cc(-c2cccc(Oc3ncccn3)c2)nc2c(C(=O)NC(C3CC3)C(F)(F)F)cnn12 (centres unmarked) [III-103],0.8 µg/mL
19,C#CC(C)(C)NC(=O)c1cnn2c(C)cc(-c3cccc(OC)c3)nc12 [III-69],0.5 µg/mL

row,Structure (SMILES),solubility
1,Cc1cc(-c2cncc(C(F)(F)F)c2)nc2c(C(=O)N[C@H](C)C(F)(F)F)cnn12 [III-286],2.1 µg/mL
2,Cc1cc(-c2cccc(Cl)n2)nc2c(C(=O)NC(C)C(F)(F)F)cnn12 (centres unmarked) [III-234],0.2 µg/mL
3,COc1c(C#N)cccc1-c1cc(C)n2ncc(C(=O)NC(C)C(F)(F)F)c2n1 (centres unmarked) [III-142],2.2 µg/mL
4,COc1cccc(-c2cc(C)n3ncc(C(=O)N[C@@H](C)C(F)(F)F)c3n2)c1 [III-91],1.7 µg/mL
5,Cc1cc(-c2cc(C)n3ncc(C(=O)N[C@@H](C4CC4)C(F)(F)F)c3n2)sn1 [III-216],0.9 µg/mL
6,Cc1cc(-c2cnccc2C(F)(F)F)nc2c(C(=O)N[C@@H](C3CC3)C(F)(F)F)cnn12 [III-354],13.5 µg/mL
7,Cc1cc(-c2ccc(F)cc2)nc2c(C(=O)N[C@H](C)C3CC3)cnn12 [III-86],2.8 µg/mL
8,Cc1cc(-c2cccc(-c3ncncn3)c2)nc2c(C(=O)NC(C3CC3)C(F)(F)F)cnn12 (centres unmarked) [III-177],0.2 µg/mL
9,C#Cc1cncc(-c2cc(C)n3ncc(C(=O)N[C@@H](C4CC4)C(F)(F)F)c3n2)c1 [III-383],0.2 µg/mL
10,Cc1cc(-c2cccc3ncsc23)nc2c(C(=O)N[C@@H](C)C3CC3)cnn12 [III-222],0.6 µg/mL
11,Cc1cc(-c2cccc(C#N)c2)nc2c(C(=O)NC(C)(C)C3CC3)cnn12 [III-71],0.5 µg/mL
12,Cc1cc(-c2ccc(F)cc2)nc2c(C(=O)NC(C3CC3)C(F)(F)F)cnn12 (centres unmarked) [III-163],0.4 µg/mL
13,Cc1cc(-c2cncc(F)c2)nc2c(C(=O)N[C@H](C3CC3)C(F)(F)F)cnn12 [III-126],1.8 µg/mL
14,Cc1cc(-c2cccc3ncoc23)nc2c(C(=O)N[C@@H](C)C3CC3)cnn12 [III-217],3.2 µg/mL
15,C#CC(C)(C)NC(=O)c1cnn2c(C)cc(-c3cccc(F)c3)nc12 [III-75],0.6 µg/mL
16,COc1cc(F)cc(-c2cc(C)n3ncc(C(=O)N[C@@H](C)C4CC4)c3n2)c1 [III-137],0.8 µg/mL
17,CO[C@H]1CC[C@@H]([C@@H](C)NC(=O)c2cnn3c(C)cc(C)nc23)CC1 [III-404],15.1 µg/mL
18,Cc1cc(-c2ccc(F)cc2C#N)nc2c(C(=O)N[C@H](C)C3CC3)cnn12 [III-153],4.5 µg/mL

# The remaining lines, values ahead:
row,solubility,Structure (SMILES)
1,4.8 µg/mL,Cc1cc(N2CCC(F)(F)C2)nc2c(C(=O)NC(C)C(F)(F)F)cnn12 (centres unmarked) [III-180]
2,0.9 µg/mL,Cc1cc(-c2cccc(Cl)c2)nc2c(C(=O)N[C@@H](C)C3CC3)cnn12 [III-65]
3,18.8 µg/mL,Cc1cc(-c2cc(C)n3ncc(C(=O)N[C@@H](C)C4CC4)c3n2)sn1 [III-346]
4,8.7 µg/mL,Cc1cc(C)n2ncc(C(=O)N[C@H](C)C3CCCCC3)c2n1 [III-3]
5,0.3 µg/mL,Cc1cc(-c2cccc(-c3ncco3)c2)nc2c(C(=O)NC(C3CC3)C(F)(F)F)cnn12 (centres unmarked) [III-416]
6,0.3 µg/mL,COCc1cc(-c2ccc(F)cc2)nc2c(C(=O)NC(C)(C)C3CC3)cnn12 [III-47]
7,2 µg/mL,C#CC(NC(=O)c1cnn2c(C)cc(-c3cccc(OC)c3)nc12)C(F)(F)F (centres unmarked) [III-96]
8,1.1 µg/mL,Cc1cc(C)n2ncc(C(=O)NC(c3ccc(F)cc3)C(F)(F)F)c2n1 (centres unmarked) [III-184]
9,0.5 µg/mL,Cc1cc(-c2ccc(F)cc2C#N)nc2c(C(=O)N[C@@H](C)C3CC3)cnn12 [III-152]
10,1.1 µg/mL,Cc1cc(-c2ccccn2)nc2c(C(=O)NC(C)(C)C3CC3)cnn12 [III-16]
11,1.4 µg/mL,Cc1cc(-c2sccc2C#N)nc2c(C(=O)NC(C)C(F)(F)F)cnn12 (centres unmarked) [III-300]
12,3.1 µg/mL,Cc1ncc(-c2cc(C)n3ncc(C(=O)NC(C4CC4)C(F)(F)F)c3n2)o1 (centres unmarked) [III-246]
13,0.7 µg/mL,Cc1cc(-c2ccccc2C#N)nc2c(C(=O)N[C@H](C)C(F)(F)F)cnn12 [III-212]
14,0.8 µg/mL,Cc1cc(-c2ccon2)nc2c(C(=O)NC(C3CC3)C(F)(F)F)cnn12 (centres unmarked) [III-239]
15,4.6 µg/mL,Cc1cc(-c2cccc3nc[nH]c23)nc2c(C(=O)NC(C3CC3)C(F)(F)F)cnn12 (centres unmarked) [III-308]
16,10 µg/mL,Cc1cc(-c2ccncc2)n2ncc(C(=O)NC(C)(C)C3CC3)c2n1 [III-21]
17,1.1 µg/mL,Cc1cc(N2CCCC(F)(F)C2)nc2c(C(=O)NC(C)C(F)(F)F)cnn12 (centres unmarked) [III-179]
18,0.02 µg/mL,Cc1cc(-c2cccc3ncoc23)nc2c(C(=O)NC(C3CC3)C(F)(F)F)cnn12 (centres unmarked) [III-104]
19,11.6 µg/mL,Cc1cc(N2CCCN(C(C)C)C2=O)nc2c(C(=O)NC(C3CC3)C(F)(F)F)cnn12 (centres unmarked) [III-257]
20,0.3 µg/mL,Cc1cc(-c2cc(F)ccc2C#N)nc2c(C(=O)N[C@@H](C)C(F)(F)F)cnn12 [III-350]
21,23.8 µg/mL,CNc1cc(C)n2ncc(C(=O)N[C@@H](C)C3CC3)c2n1 [III-6]
22,0.2 µg/mL,Cc1cc(-c2cccc3ncsc23)nc2c(C(=O)NC(C)C(F)(F)F)cnn12 (centres unmarked) [III-221]
23,0.3 µg/mL,Cc1cc(-c2ccc3ocnc3c2)nc2c(C(=O)NC(C3CC3)C(F)(F)F)cnn12 (centres unmarked) [III-83]
24,12.1 µg/mL,Cc1cc(-c2cccnc2)nc2c(C(=O)NC(C)C(F)(F)F)cnn12 (centres unmarked) [III-43]
25,0.6 µg/mL,Cc1cc(N2CCCC(F)(F)C2)nc2c(C(=O)N[C@H](C3CC3)C(F)(F)F)cnn12 [III-94]
26,0.9 µg/mL,COc1ccc(F)c(-c2cc(C)n3ncc(C(=O)NC(C)C(F)(F)F)c3n2)c1 (centres unmarked) [III-409]
27,5.3 µg/mL,Cc1cncc(-c2cc(C)n3ncc(C(=O)N[C@@H](C4CC4)C(F)(F)F)c3n2)c1 [III-277]
28,3.1 µg/mL,Cc1cc(-c2cncc(Cl)c2)nc2c(C(=O)N[C@H](C)C(F)(F)F)cnn12 [III-201]
29,0.4 µg/mL,Cc1cc(-c2ccccn2)nc2c(C(=O)NC(C)(C)C(F)(F)F)cnn12 [III-408]
30,0.7 µg/mL,Cc1cc(-c2noc(C(C)C)n2)nc2c(C(=O)N[C@@H](C3CC3)C(F)(F)F)cnn12 [III-394]
